Assay results as given in patent publication US4943574A, “(1H-azol-1-ylmethyl) substituted benzotriazole derivatives and pharmaceutical compositions containing them” (Janssen Pharmaceutica N.V., priority 1989, dated 1990).
Read-outs that look alike come from different tables or passages of the source.

Tests used:
[1] = system: aromatase; assay: In vivo-inhibition of the aromatase activity (plasma estradiol in PMSG-injected immature female Wistar rats); set-up: species or system rat (immature female Wistar rats)
Experimental: Immature female Wistar rats weighing 120 g were injected subcutaneously with 200 I.U. of pregnant mare's serum gonadotropin (PMSG). […] Control animals received 20% polyethyleneglycol only. Two hours following drug or placebo administration the rats were killed by decapitation and trunk blood was collected on heparine. Plasma estradiol concentrations were measured by standard radio-immunological procedures.

[2] = biological target: T1, aromatase (Homo sapiens, UniProt P11511); assay: biochemical; details: read-out: IC50-values (concentration of the compound required to obtain 50% inhibition of the estrogen synthesis)
T1 sequence (P11511 1-503): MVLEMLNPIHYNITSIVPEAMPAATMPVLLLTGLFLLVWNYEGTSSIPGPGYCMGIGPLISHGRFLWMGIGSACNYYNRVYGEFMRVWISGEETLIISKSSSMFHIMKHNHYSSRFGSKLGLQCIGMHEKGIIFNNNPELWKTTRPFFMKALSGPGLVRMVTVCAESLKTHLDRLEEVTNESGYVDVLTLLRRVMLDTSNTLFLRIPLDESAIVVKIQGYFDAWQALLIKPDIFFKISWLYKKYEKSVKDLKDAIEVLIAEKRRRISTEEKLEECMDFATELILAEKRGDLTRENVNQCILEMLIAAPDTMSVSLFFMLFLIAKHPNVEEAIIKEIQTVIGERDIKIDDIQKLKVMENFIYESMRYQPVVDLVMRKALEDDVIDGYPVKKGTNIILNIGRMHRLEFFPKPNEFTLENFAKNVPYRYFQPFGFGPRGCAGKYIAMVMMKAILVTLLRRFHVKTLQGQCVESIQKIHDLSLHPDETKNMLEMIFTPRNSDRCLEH
Experimental: Human placental microsomes were diluted in potassium phosphate buffer (0.1M, pH 7.4) to give about 50% conversion of androgens to estrogens (protein content: about 0.5 mg). Four ml human placental microsomes were incubated in a final volume of 5 ml with 0.2 μCi1,2[3H]-androstenedione, 2 μg androstendione and 5 μl of test compound and/or dimethyl sulfoxide (DMSO). […] The reaction was initiated by the addition of androstenedione and proceeded for 30 min at 37° C. During the incubation period, the mixtures were gassed with air. In this assay, aromatization of androstenedione results in the production of [3H]-H2 O which is isolated by extracting the samples with chloroform to remove the free steroid.

[3] = 1 mg/kg oral gavage, two hours following administration, PMSG-injected immature female Wistar rats
[4] = human placental microsomes, 30 min at 37° C., pH 7.4, 1,2[3H]androstenedione

IC50 [2, 4] [nM]	Structure (SMILES)	% recovery estradiol (plasma estradiol relative to the controls) ([1]; rat, in vivo) [%]	% recovery estradiol (plasma estradiol relative to the controls) [1, 3] [%]	IC50 [2] [nM]
17.8	Fc1cccc(Cn2nnc3ccc(Cn4ccnc4)cc32)c1 [Compound 99]	–	11	–
14.3	c1cn(Cc2ccc3nnn(C4CCCCCC4)c3c2)cn1 [Compound 100]	–	3	–
17.4	CCC(C)n1nnc2ccc(Cn3ccnc3)cc21 (stereo not shown) [Compound 101]	–	7	–
31.7	CCn1nnc2ccc(Cn3ccnc3)cc21 [Compound 102]	–	2	–
16.3	c1cn(Cc2ccc3nnn(C4CC5CCC4C5)c3c2)cn1 (stereo not shown) [Compound 103]	–	5	–
20.6	c1ccc(C(c2ccc3nnn(C4CCCCC4)c3c2)n2ccnc2)cc1 (stereo not shown) [Compound 104]	–	9	–
19.8	c1ccc2c(c1)CCCC2n1nnc2ccc(Cn3ccnc3)cc21 (stereo not shown) [Compound 105]	–	14	–
26.2	OCCCn1nnc2ccc(Cn3ccnc3)cc21 [Compound 109]	–	–	–
8.9	CC(C)CCn1nnc2ccc(C(c3ccc(Cl)cc3)n3ccnc3)cc21 (stereo not shown) [Compound 120]	–	–	–
12	c1ccc(SCOn2nnc3ccc(Cn4ccnc4)cc32)cc1 [Compound 176]	–	–	–
23.2	C#CCOn1nnc2ccc(Cn3ccnc3)cc21 [Compound 179]	–	–	–
18.2	c1ccc(COn2nnc3ccc(C(c4ccccc4)n4ccnc4)cc32)cc1 (stereo not shown) [Compound 188]	–	–	–
23.4	c1ccc(-c2ccc(COn3nnc4ccc(Cn5ccnc5)cc43)cc2)cc1 [Compound 191]	–	–	–
11	c1cncc(COn2nnc3ccc(Cn4ccnc4)cc32)c1 [Compound 196]	–	–	–
11	CCC(C)On1nnc2ccc(Cn3ccnc3)cc21 (stereo not shown) [Compound 197]	–	–	–
18	CCOC(=O)COn1nnc2ccc(Cn3ccnc3)cc21 [Compound 198]	–	–	–
17	CCCCCCCCCOn1nnc2ccc(Cn3ccnc3)cc21 [Compound 203]	–	–	–
8	CCCCCCCOn1nnc2ccc(Cn3ccnc3)cc21 [Compound 206]	–	–	–
11	c1ccc(CCOn2nnc3ccc(Cn4ccnc4)cc32)cc1 [Compound 208]	–	–	–
36.2	Cc1cncn1C(c1ccccc1)c1ccc2nnn(OCc3ccccc3)c2c1 (stereo not shown) [Compound 213]	–	–	–
20	COCCOn1nnc2ccc(Cn3ccnc3)cc21 [Compound 220, 6-(1H-imidazol-1-ylmethyl)-1-(2-methoxyethoxy)-1H-benzotriazole]	–	–	–
5.2	c1ccc(COn2nnc3ccc(Cn4ccnc4)cc32)cc1 [Compound 228, 6-(1H-imidazol-1-ylmethyl)-1-(phenylmethoxy)-1H-benzotriazole]	–	–	–

Further lines, the compound ahead of its results:

Structure (SMILES)	IC50 [2, 4] [nM]	% recovery estradiol (plasma estradiol relative to the controls) ([1]; rat, in vivo) [%]	% recovery estradiol (plasma estradiol relative to the controls) [1, 3] [%]	IC50 [2] [nM]
Clc1ccc(C(c2ccc3nnn(-c4ccccc4)c3c2)n2ccnc2)cc1.O=[N+]([O-])O (stereo not shown)	–	21	–	–
CC(C)On1nnc2ccc(C(c3ccccc3)n3ccnc3)cc21 (stereo not shown) [Compound 2]	16	–	20	–
CCOn1nnc2ccc(C(c3ccccc3)n3ccnc3)cc21 (stereo not shown) [Compound 4]	16	–	–	–
CCCCOn1nnc2ccc(C(c3ccccc3)n3ccnc3)cc21 (stereo not shown) [Compound 6]	12	–	–	–
Cn1nnc2ccc(C(c3ccccc3)n3ccnc3)cc21 (stereo not shown) [Compound 7]	25.7	–	7	–
CCCCn1nnc2ccc(C(c3ccc(Cl)cc3)n3ccnc3)cc21 (stereo not shown) [Compound 15]	22.6	–	2	–
CCCCn1nnc2ccc(C(c3ccc(F)cc3)n3ccnc3)cc21 (stereo not shown) [Compound 17]	18.2	–	7	–
CCCCn1nnc2ccc(C(c3cccc(Cl)c3)n3ccnc3)cc21 (stereo not shown) [Compound 23]	7.5	–	–	–
Cn1nnc2ccc(C(c3cccc(Cl)c3)n3ccnc3)cc21 (stereo not shown) [Compound 28]	25.3	–	6	–
Cn1nnc2ccc(C(c3ccc(F)cc3)n3ccnc3)cc21 (stereo not shown) [Compound 29]	15.9	–	7	–
Cn1nnc2ccc(C(c3ccc(Cl)cc3)n3ccnc3)cc21 (stereo not shown) [Compound 30]	22.2	–	7	–
CCCC(c1ccc2nnn(C)c2c1)n1ccnc1 (stereo not shown) [Compound 31]	34.2	–	8	–
Cn1nnc2ccc(C(c3cccc(F)c3)n3ccnc3)cc21 (stereo not shown) [Compound 33]	24.6	–	5	–
Cn1nnc2ccc(C(c3ccc(Cl)cc3)n3ccnc3)cc21 (stereo not shown) [Compound 48]	16.6	–	6	–
Cn1nnc2ccc(C(c3cccc(Br)c3)n3ccnc3)cc21 (stereo not shown) [Compound 50]	18.3	–	1	–
Cn1nnc2ccc(C(c3ccc(Br)cc3)n3ccnc3)cc21 (stereo not shown) [Compound 51]	22.2	–	7	–
Cn1nnc2ccc(C(c3ccc(C(F)(F)F)cc3)n3ccnc3)cc21 (stereo not shown) [Compound 55]	18.8	–	3	–
Cn1nnc2ccc(C(c3ccccc3Cl)n3ccnc3)cc21 (stereo not shown) [Compound 56]	21.5	–	8	–
COc1ccc(C(c2ccc3nnn(C)c3c2)n2ccnc2)cc1 (stereo not shown) [Compound 59]	18	–	–	–
Cn1nnc2ccc(C(c3ccsc3)n3ccnc3)cc21 (stereo not shown) [Compound 69, 6-[(1H-imidazol-1-yl) (3-thienyl)methyl]-1-methyl-1H-benzotriazole]	29	–	5	–
CCCCn1nnc2ccc(C(c3ccccc3)n3ccnc3)cc21.O=C(O)C(=O)O (stereo not shown) [Compound 75, 1-butyl-6-[(1H-imidazol-1-yl)phenylmethyl]-1H-benzotriazole ethanedioate(1:1)]	24.2	–	27	–
CC(C)n1nnc2ccc(C(c3ccccc3)n3ccnc3)cc21.O=C(O)C(=O)O (stereo not shown) [Compound 76, 6-[(1H-imidazol-1-yl)phenylmethyl]-1-(1-methylethyl)-1H-benzotriazole ethanedioate(1:1)]	34.7	–	9	–
CC(C)n1nnc2ccc(Cn3ccnc3)cc21 [Compound 87]	26.9	–	5	–
CCCn1nnc2ccc(Cn3ccnc3)cc21 [Compound 89]	15	–	5	–
Cn1nnc2ccc(C(c3ccccc3)n3ccnc3)cc21 (stereo not shown) [Compound 90]	22.7	–	5	–
Clc1ccc(Cn2nnc3ccc(Cn4ccnc4)cc32)cc1 [Compound 91]	8.8	–	–	–
c1ccc(CCn2nnc3ccc(Cn4ccnc4)cc32)cc1 [Compound 92]	8.7	–	15	–
CC(C)CCn1nnc2ccc(Cn3ccnc3)cc21 [Compound 93]	10.5	–	8	–
c1cn(Cc2ccc3nnn(CC4CCCCC4)c3c2)cn1 [Compound 97]	13.1	–	10	–
Clc1ccc(C(c2ccc3nnn(-c4ccccc4)c3c2)n2ccnc2)cc1.O=[N+]([O-])O (stereo not shown) [mononitrate]	–	–	–	17.6
